The text below walks through data of patent US5760036A, “Aminediol protease inhibitors” (E. R. Squibb & Sons, Inc., priority 1995, dated 1998).

SMILES strings stand for the structures. Like-named read-outs stand apart in the source and are kept apart here. Bounds are passed on as bounds.

One assay concerns the target T1, HIV protease (Human immunodeficiency virus type 1 group M subtype B, UniProt P04585).
T1 construct: and purified protease
As to the kind of experiment: HIV Protease Assay. In kind it is biochemical. The method in brief: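 At a single final concentration of 10 μM (4% DMSO), inhibitors were added to a 30-minute, 37° C reaction of purified enzyme with 450 μM H2N-Val-Ser-Gln-Asn-(β-naphthyl-alanine)-Pro-Val-Ile-OH at pH 5.5 (sodium acetate, BSA). Hydrolysis was quantified by reverse-phase HPLC with 220 nm detection after acid quench.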

Assay [1] deals with RF strain of HIV (CEM-SS cells). Put plainly: Cell Culture Anti-HIV Activity (cell viability, formazan). In kind it is cell-based. The following applies: Human immunodeficiency virus 1, CEM-SS, 144 h. The method in brief:
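Half-log compound dilutions added to CEM-SS cells (5000/well) carrying HIV RF (MOI 0.04), 6 days, 37° C. Cell protection measured as formazan from tetrazolium, A450. IC50: drug level restoring infected-cell formazan to 50% of the uninfected untreated control.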

The mark [2] stands for this setting: pH 5.5, 10 μM inhibitor, 4% DMSO, 450 μM substrate, pH 5.5, 30 minutes at 37° C., RP-HPLC, read-out: HIV Protease % Inhibition at 10 μM.
Setting [3] is: CEM-SS cells, RF strain of HIV, multiplicity of infection 0.04, 6 days at 37° C., 450 nm, read-out: HIV (CEM Cells) IC50.

By inhibition is commonly meant how much of the control response was suppressed. In general, IC50 refers to the concentration that gives 50% inhibition. `CC(C)[C@H](NC(=O)OCc1ccccc1)C(=O)N(C)[C@@H](Cc1ccccc1)[C@H](O)CNC[C@@H](O)[C@H](Cc1ccccc1)NC(=O)OC(C)(C)C` [Compound 134, [S-[1R*,2S*(2S*,3R*)]]-N-[3-[[3-[[(1,1-Dimethylethoxy)carbonyl]amino]-2-hydroxy-4-phenylbutyl]amino]-2-hydroxy-1-(phenylmethyl)-propyl]-N-methyl-N^2-[(phenylmethoxy)carbonyl]-L-valinamide]: on HIV protease (setting [2]), the inhibition at 10 µM amounted to 87%. Further, the IC50 in assay [1] (setting [3]) was over 5 µM.

With `CC(C)(C)NC(=S)N[C@@H](Cc1ccccc1)[C@H](O)CNC[C@@H](O)[C@H](Cc1ccccc1)NC(=O)OC(C)(C)C` [Compound 137, [1S-[1R*,2S*(2S*,3R*)]]-[3-[[3-[[[(1,1-Dimethylethyl)amino]thioxomethyl]amino]-2-hydroxy-4-phenylbutyl]amino]-2-hydroxy-1-(phenylmethyl))propyl]carbamic acid, 1,1-dimethylethyl ester], the inhibition at 10 µM on HIV protease (setting [2]) worked out at 92%. Also, the half-inhibitory concentration (IC50) in assay [1] (setting [3]) is over 2.6 µM.

For the compound `CCC(C)(C)OC(=O)N[C@@H](Cc1ccccc1)[C@H](O)CNC[C@@H](O)[C@H](Cc1ccccc1)NC(=O)OC(C)(C)CC` [Compound 138, [R-(R*,S*)]-[Iminobis[2-hydroxy-1-(phenylmethyl)-3,1-propandiyl]]biscarbamic acid, bis(1,1-dimethylpropyl)ester], at HIV protease (setting [2]), the inhibition at 10 µM worked out at 98%. The IC50 in assay [1] (setting [3]) is over 0.8 µM.

`CC(C)[C@H](NC(=O)OCc1ccccc1)C(=O)N[C@@H](Cc1ccccc1)[C@H](O)CNC[C@@H](O)[C@H](Cc1ccccc1)N(C)C(=O)OC(C)(C)C` [Compound 141, [S-[1R*,2S*(2S*,3R*)]-N-[3-[[3-[[(1,1-Dimethylethoxy)carbonyl]methylamino]-2-hydroxy-4-phenylbutyl]amino]-2-hydroxy-1-(phenylmethyl)propyl]-N^2-[(phenylmethoxy)-carbonyl]-L-valinamide]]: the inhibition at 10 µM at HIV protease (setting [2]) came out at 77%. Besides, in assay [1] (setting [3]), the IC50 is over 2.3 µM.

For `CC(C)(C)OC(=O)N[C@@H](Cc1ccccc1)[C@H](O)CNC[C@@H](O)[C@H](Cc1ccccc1)NC(=O)OC1CCc2ccccc21` (stereo partly drawn) [Compound 144, [1S-(1R*,2S*)]-[Iminobis[2-hydroxy-1-(phenylmethyl)-3,1-propanediyl)]-bis[carbamic acid], 1,1-dimethylethyl-2,3-dihydro-1H-inden-1-yl ester], on HIV protease (setting [2]), the inhibition at 10 µM turned out to be 88%. Also, the concentration for half-maximal inhibition (IC50) in assay [1] (setting [3]) is 1 µM.

Regarding `CC(C)(C)OC(=O)N[C@@H](Cc1ccccc1)[C@H](O)CNC[C@@H](O)[C@H](Cc1ccccc1)NC(=O)O[C@@H]1CCc2ccccc21` [Compound 145, [1S-(1R*,2S*)]-[Iminobis[2-hydroxy-1-(phenylmethyl)-3,1-propanediyl)]biscarbamic acid, 1,1-dimethylethyl(R)-2,3-dihydro-1H-inden-1-yl ester], on HIV protease (setting [2]), the inhibition at 10 µM stood at 95%. Besides, in assay [1] (setting [3]), the IC50 is over 2.2 µM.

As for `CC(C)(C)OC(=O)N[C@@H](Cc1ccccc1)[C@H](O)CNC[C@@H](O)[C@H](Cc1ccccc1)NC(=O)O[C@H]1CCc2ccccc21` [Compound 146, [1S-(1R*,2S*)]-[Iminobis[2-hydroxy-1-(phenylmethyl)-3,1-propanediyl)]biscarbamic acid, 1,1-dimethylethyl(S)-2,3-dihydro-1H-inden-1-yl ester], the inhibition at 10 µM at HIV protease (setting [2]) was 98%. For the same compound, the IC50 in assay [1] (setting [3]) is at least 3 µM.

`CC(C)(C)OC(=O)N[C@@H](Cc1ccccc1)[C@H](O)CNC[C@@H](O)[C@H](Cc1ccccc1)NC(=O)OC1c2ccccc2CC1O` (stereo partly drawn) [Compound 148, [1S-(1R*, 2S*)]-[Iminobis[2-hydroxy-1-(phenylmethyl)-3,1-propanediyl)]biscarbamic acid, 1,1-dimethylethyl 2,3-dihydro-2-hydroxy-1H-inden-1-yl ester]: the “HIV Protease % Inhibition at 10 μM” value on HIV protease (10 μM inhibitor, 4% DMSO, 450 μM substrate, pH 5.5, 30 minutes at 37° C., RP-HPLC) is on record as 88%. In addition, the IC50 in assay [1] (setting [3]) was determined as 2 µM.

As to `CC(C)(C)OC(=O)N[C@@H](Cc1ccccc1)[C@H](O)CNC[C@@H](O)[C@H](Cc1ccccc1)NC(=O)OC(C)(C)CCCNC(=O)OCc1ccccc1` [Compound 150, [1S-(1R*,2S*)]-[Iminobis[2-hydroxy-1-(phenylmethyl)-3,1-propanediyl)]biscarbamic acid, 1,1-dimethylethyl 1,1-dimethyl-4-[[(phenylmethoxy)carbonyl]amino]butyl ester], on HIV protease (setting [2]), the inhibition at 10 µM is 93%. For the same compound, the IC50 in assay [1] (setting [3]) is over 4 µM.

On to `CC(C)(C)OC(=O)N[C@@H](Cc1ccccc1)[C@H](O)CNC[C@@H](O)[C@H](Cc1ccccc1)NC(=O)OC(C)(C)CCCNCc1ccccc1` [Compound 153, [1S-(1R*,2S*)]-[Iminobis[2-hydroxy-1-(phenylmethyl)-3,1-propanediyl]biscarbamic acid, 1,1-dimethylethyl 1,1-dimethyl-4-[(phenylmethyl)-amino]butyl ester], for which, on HIV protease (setting [2]), the inhibition at 10 µM turned out to be 65%. Further, the IC50 in assay [1] (setting [3]) is over 0.55 µM.

As for `CC(C)(C)OC(=O)N[C@@H](Cc1ccccc1)[C@H](O)CNC[C@@H](O)[C@H](Cc1ccccc1)NC(=O)OC(C)(C)Cc1ccccc1` [Compound 154, [R-(R*,S*)]-Iminobis[2-hydroxy-1-(phenylmethyl)-3,1-propanediyl)]biscarbamic acid, 1,1-dimethylethyl 1,1-dimethyl-2-phenylethyl ester], on HIV protease (setting [2]), the inhibition at 10 µM is 96%. For the same compound, the IC50 in assay [1] (setting [3]) was over 1.2 µM.

Turning to `CC(C)(C)OC(=O)N[C@@H](Cc1ccccc1)[C@H](O)CNC[C@@H](O)[C@H](Cc1ccccc1)NC(=O)OC(C)(C)C#CCCc1ccccc1` [Compound 155, [1S-(1R*,2S*)]-[Iminobis[2-hydroxy-1-(phenylmethyl)-3,1-propanediyl]biscarbamic acid, 1,1-dimethylethyl 1,1-dimethyl-5-phenyl-2-pentynyl ester], the inhibition at 10 µM at HIV protease (setting [2]) turned out to be 95%. Also, in assay [1] (setting [3]), the IC50 was over 0.2 µM.

On to `CC(C)(C)OC(=O)N[C@@H](Cc1ccccc1)[C@H](O)CNC[C@@H](O)[C@H](Cc1ccccc1)NC(=O)OC(C)(C)c1ccccc1` [Compound 156, [1S-(1R*,2S*)]-2-hydroxy-1-(phenylmethyl)-3,1-propanediyl)biscarbamic acid, 1,1-dimethylethyl-1-methyl-1-phenylethyl ester], for which, at HIV protease (setting [2]), the inhibition at 10 µM was determined as 85%. For the same compound, the concentration for half-maximal inhibition (IC50) in assay [1] (setting [3]) is over 6 µM.

In the case of `CC(C)(C)OC(=O)N[C@@H](Cc1ccccc1)[C@H](O)CNC[C@@H](O)[C@H](Cc1ccccc1)NC(=O)OC(C)(C)CCOCc1ccccc1` [Compound 158, [1S-(1R*,2S*)]-[Iminobis[2-hydroxy-1-(phenylmethyl)-3,1-propanediyl]biscarbamic acid, 1,1-dimethylethyl 1,1-dimethyl-3-(phenylmethoxy)-propyl ester], at HIV protease (setting [2]), the inhibition at 10 µM is 97%. Besides, the IC50 in assay [1] (setting [3]) is over 1.8 µM.

For the compound `CC(C)(C)OC(=O)N[C@@H](Cc1ccccc1)[C@H](O)CNC[C@@H](O)[C@H](Cc1ccccc1)NC(=O)OC1(C)CCCC1` [Compound 159, [1S-(1R*,2S*)]-[Iminobis[2-hydroxy-1-(phenylmethyl)-3,1-propanediyl]]bis-[carbamic acid], 1,1-dimethylethyl 1-methyl-cyclopentyl ester], the inhibition at 10 µM on HIV protease (setting [2]) was 100%. The 50% inhibitory concentration (IC50) in assay [1] (setting [3]) worked out at 1.3 µM.

Take `CC(C)(C)OC(=O)N[C@@H](Cc1ccccc1)[C@H](O)CNC[C@@H](O)[C@H](Cc1ccccc1)NC(=O)OC1(C)CCC1` [Compound 160, [1S-(1R*,2S*)]-[Iminobis[2-hydroxy-1-(phenylmethyl)-3,1-propanediyl]]bis[carbamic acid], 1,1-dimethylethyl-1-methylcyclobutyl ester]: the inhibition at 10 µM on HIV protease (setting [2]) was 99%. Moreover, the IC50 in assay [1] (setting [3]) was determined as 0.08 µM.

Turning to `CC(C)(C)OC(=O)N[C@@H](Cc1ccccc1)[C@H](O)CN(C[C@@H](O)[C@H](Cc1ccccc1)NC(=O)OC(C)(C)CO)C(=O)OCC[Si](C)(C)C` [Compound 164, [R-(R*,S*)]-[[[(Trimethylsilyl)-ethoxy]carbonyl]iminobis[2-hydroxy-1-(phenylmethyl)-3,1-propanediyl]1biscarbamic acid, 1,1-di-methylethyl 2-hydroxy-1,1-dimethylethyl ester], the inhibition at 10 µM on HIV protease (pH 5.5, read-out: HIV Protease % Inhibition at 10 μM, 10 μM inhibitor, 4% DMSO, 450 μM substrate, pH 5.5, 30 minutes at 37° C., RP-HPLC) is 99%. Further, the 50% inhibitory concentration (IC50) in assay [1] (read-out: HIV (CEM Cells) IC50 (μM)) stood at 0.04 µM.

Turning to `CC(C)(CO)OC(=O)N[C@@H](Cc1ccccc1)[C@H](O)CNC[C@@H](O)[C@H](Cc1ccccc1)NC(=O)OC(C)(C)CO` [Compound 165, [R-(R*,S*)]-[Iminobis[2-hydroxy-1-(phenylmethyl)-3,1-propanediyl)biscarbamic acid, bis(2-hydroxy-1,1-dimethylethyl) ester], on HIV protease (setting [2]), the inhibition at 10 µM stood at 100%. In addition, the IC50 in assay [1] (setting [3]) was 0.62 µM.

In the case of `CC(C)(C)OC(=O)N[C@@H](Cc1ccccc1)[C@H](O)CNC[C@@H](O)[C@H](Cc1ccccc1)NC(=O)OC1(C)CCOCC1` [Compound 166, [1S-(1R*,2S*)]-[Iminobis[2-hydroxy-1-(phenylmethyl)-3,1-propanediyl]]bis[carbamic acid], 1,1-dimethylethyl-4-methyltetrahydropyran-4-yl-ester], the inhibition at 10 µM on HIV protease (setting [2]) was found to be 89%. The IC50 in assay [1] (setting [3]) was found to be 1.7 µM.
